Laboratory results from EP0162592B1, “Heterocyclic amino compounds” (GLAXO GROUP LIMITED, priority 1984, dated 1985).
Structures can show the parent of a compound that is named as a salt.

Tested on: α1-adrenoreceptor
Assay: a1-Adrenoreceptor antagonist action: prevention of phenylephrine contractions in rat isolated anococcygeus muscle (Schild analysis)
Format: cell-based
Conditions: agonist phenylephrine, KB = concentration shifting the agonist log10 (concentration)/response curve to the right by a factor of 2, read-out: KB value at a,-adrenoreceptors
Protocol: The a-adrenoreceptor-type selectivity of the compounds of general formula (I) is similarly assessed by measuring the ability to produce a parallel shift to the right of the logio (concentration)/response curve for the a,-adrenoreceptor agonist phenylephrine. The a,-adrenoreceptor-mediated responses of phenylephrine measured were contractions of the rat isolated anococcygeus muscle (Leighton, Butz & Parameter, Eur.J.Pharmac., 1979, 58 27-38).
Compounds were tested for their ability to prevent the action of α1-adrenoreceptor agonist phenylephrine in the rat isolated anococcygens muscle (Leighton, Butz & Parmeter, Eur. J. Pharmac., 1979 58 27-38). Antagonism of the effect of phenylephrine was quantified by measuring the parallel shift to the right of the phenylephrine log10 (concentration)/response curve in the presence of increasing concentrations of the test compound.
In (1) and (2) potency and competiveness of antagonism were determined by the method of Arunlakshana & Schild (Br. J. Pharmac. 1959, 14 48-58).

c1ccc2c(c1)C[C@H]1CNC[C@@H]1O2 (racemic) [Example 2, (±)-trans-1,2,3,3a,9,9a-Hexahydro[1]benzopyrano[2,3-c]pyrrole, hydrochloride]
Kb: > 10 µM
